Test results reported in patent US20190298669A1 (priority 2018, published 2019).

System: A/Mississippi/3/2001 H275Y mutant (H1N1)
Type: cell-based, influenza A virus

In the case of CCOC(=O)C1=C[C@@H](OC(CC)CC)[C@H](NC(C)=O)[C@@H](N)C1 [oseltamivir], the reduction of virus is reported as 43%.
